Data as given in patent US12616674B2, “Anti-fibrotic NEU3 inhibitor compounds and methods of use” (The Texas A&M University System, priority 2019, dated 2026).

What was measured:
[1] = test system: NEU3-induced IL-6 production by human PBMC; experiment: NEU3-induced extracellular IL-6 accumulation by human PBMC (IL-6 concentration assay); assay type: cell-based; conditions: NEU3, serum-free medium, 48 hours
Procedure: Human peripheral blood was collected from healthy volunteers who gave written consent and with specific approval from the Texas A&M University human subjects review board. Peripheral blood mononuclear cells (PBMC) were isolated from the blood using Ficoll-Paque density gradient centrifugation (95021-205, GE Healthcare, Cincinnati, OH) following the manufacture's protocol. PBMC were cultured at […] in 96-well flat bottom tissue culture plates (type 62406-081; […] Louis, MO)) in a final volume of 200 μl per well. […] The sialidases were diluted in 100 μl of the same medium the cells were in, and added to 100 μl of cells at 1×10^5 cells/ml to make the total volume in a well 200 μl with 1×10^4 cells/well. The cells were then incubated at 37° C. in a humidified incubator with 5% CO2. The culture supernatants were collected after two or five days and assayed using an IL-6 ELISA kit (430501, Biolegend, San Diego, CA) following the manufacturer's protocol, reading absorbance with a SynergyMX plate reader (BioTek, Winooski, VT). Statistics were analyzed using Prism software (Graphpad, La Jolla, CA). At least three different donors were used for each assay. […] IL-6 in the culture supernatant was then assayed as described above. At least three different donors were used for each assay.

[2] = test system: bleomycin-induced pulmonary fibrosis, C57BL/6 mice; experiment: Bleomycin-induced pulmonary fibrosis in mice; assay type: in vivo, mouse; conditions: for fibrosis-associated inflammation (BAL cell counts, CD11b, CD11c, CD45, Ly6G, Ly6C): daily i.p. from day 10, 1 mg/kg (2-acetyl pyridine, methyl picolinate) or 0.1 mg/kg (AMPCA), day 21, FIGS. 8A-F; for bleomycin-induced decrease in weights of mice / bleomycin-induced collagen deposition in the lungs (Sirius red staining): daily i.p. from day 10, 1 mg/kg (2AP, MP) or 0.1 mg/kg (AMPCA); for bleomycin-induced decrease in weights of mice: 21 days, FIGS. 11A-D; for bleomycin-induced collagen deposition in the lungs (Sirius red staining): day 21, FIGS. 9-10
Procedure: To determine if selected compounds affect pulmonary fibrosis in mice, 8-10 week old 26-30 g male C57BL/6 mice (Jackson, Bar Harbor, ME) were given an oropharyngeal aspiration of 3 units/kg bleomycin (2246-10, 50, BioVision Incorporated, Milpitas, CA) in 50 μl of 0.9% saline to induce symptoms of pulmonary fibrosis or oropharyngeal saline as a control following Current protocols in mouse biology 2, 167-175, (2012). Starting 10 days after bleomycin had been administered, some of the bleomycin-treated mice were given daily intraperitoneal injections of 100 μl of PBS or 1 mg/kg 2-acetyl pyridine (sc-254121, Santa Cruz Biotechnology, Inc. Dallas, TX) or 1 mg/kg methyl picolinate (sc-228575, Santa Cruz Biotechnology, Inc.) or 0.1 mg/kg of 2-piperidinecarboxylic acid, 4-amino-1-methyl (A00285-13785-026, Sundia, Shanghai, China) in 100 μl PBS. At day 21, mice were sacrificed by CO2 inhalation, and bronchoalveolar lavage (BAL) fluid and cytospins of BAL cells were obtained as previously described in Current protocols in mouse biology 2, 167-175 (2012); Proceedings of the National Academy of Sciences of the United States of America 112, 11929-11934 (2015); Proceedings of the National Academy of Sciences of the United States of America 111, 18291-18296 (2014); Proceedings of the National Academy of Sciences of the United States of America 112, 8385-8390 (2015); and Public Library of Science ONE 9, e93730 (2014) (all hereby incorporated by reference). The total cells from cytospins were quantified as described previously in Current protocols in mouse biology 2, 167-175, (2012); and Public Library of Science ONE 9, e93730 (2014). The lungs were removed and inflated with Surgipath frozen section compound (3801480, Leica, Buffalo Grove, IL) and preserved at −80° C. 6-10 μm cryosections of lungs were placed on glass slides (48311-703, VWR). The experiment was performed in accordance with the recommendations in the Guide for the Care and Use of Laboratory Animals of the National Institutes of Health. The Texas A&M University Animal Use and Care Committee approved the protocol.
Cryosections were stained for collagen with 0.1% Sirius red (09400, Polysciences, Warrington, PA), in saturated picric acid (26853-07, Electron Microscopy Sciences, Hatfield, PA) for 15 minutes at room temperature. The sections were washed in 0.5% acetic acid in water (v/v) for 10 minutes with two washes at room temperature. After dehydrating the sections in ethanol, the sections were mounted in Permount mounting medium (17986-01, Electron Microscopy Sciences). The sections were imaged on a Nikon Microphot-FX (Nikon, Tokyo, Japan), and staining was quantified with ImageJ.
Immunohistochemistry on BAL cytospins was performed as described previously in Public Library of Science ONE 9, e93730 (2014); Proceedings of the National Academy of Sciences of the United States of America 111, 18291-18296 (2014); and Proceedings of the National Academy of Sciences of the United States of America 112, 8385-8390 (2015) using anti-CD11b (101202, clone M1/70 BioLegend, San Diego, CA) to detect blood and inflammatory macrophages, anti-CD11c (M100-3, clone 223H7, MBL International, Woburn, MA) to detect alveolar macrophages and dendritic cells, anti-CD45 (103102, clone 30-F11, BioLegend) for total leukocytes, anti-Ly-6G (127602, clone 1A8, BioLegend) to detect neutrophils, and anti-Ly-6C (128001, clone HK1.4, BioLegend) to detect a variety of inflammatory immune system cells, and with isotype-matched irrelevant antibodies (BioLegend) as controls.

Row | Structure (SMILES) | IC50 [1] [µM] | fibrosis-associated inflammation (BAL cell counts, CD11b, CD11c, CD45, Ly6G, Ly6C) [2] | bleomycin-induced decrease in weights of mice [2] | bleomycin-induced collagen deposition in the lungs (Sirius red staining) [2]
1 | COC(=O)c1ccccn1 [Compound 6, methyl picolinate] | > 100 | can reduce fibrosis-associated inflammation | attenuated | reduced
2 | CN1CCC(N)CC1C(=O)O (stereo not drawn) [Compound 26, 2-piperidinecarboxylic acid, 4-amino-1-methyl] | 1e-05 | can reduce fibrosis-associated inflammation | attenuated | reduced
3 | CC(=O)c1ccccn1 [Compound 5, 2-acetylpyridine] | 32 | can reduce fibrosis-associated inflammation | attenuated | reduced
